# Patent publication US20240059703A1 (AMGEN INC., priority 2021, published 2024)
# Target: KRAS G12C (Homo sapiens (Human), UniProt P01116, C118A/G12C)
# Experiment: 2 h coupled exchange assay
# Assay type: biochemical
# Conditions: Avg 2 h Coupled exchange IC50, 2 h compound pre-incubation
# Procedure: The term “2 h coupled exchange assay” or “20 h coupled exchange assay” as used herein refers to the assay described in the Section entitled “BIOLOGICAL EVALUATION.”
# Sequence of KRAS G12C (P01116 other isoform, or with tags, fused parts or gaps G12C/C118A): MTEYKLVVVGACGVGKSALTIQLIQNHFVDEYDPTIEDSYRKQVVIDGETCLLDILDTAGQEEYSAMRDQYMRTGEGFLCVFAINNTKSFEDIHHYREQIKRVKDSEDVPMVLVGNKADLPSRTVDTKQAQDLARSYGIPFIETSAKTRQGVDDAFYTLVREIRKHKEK
row,SMILES,IC50 [nM]
1,"C=CC(=O)N1CC2(CCN(c3nc4c(c(-c5[nH]c(=O)c(Br)c6ccccc56)c3C#N)CCC(C)(C)C4)C2)C1 [Example 33-1, 4-(4-bromo-3-oxo-2,3-dihydro-1-isoquinolinyl)-7,7-dimethyl-2-(2-(2-propenoyl)-2,6-diazaspiro[3.4]octan-6-yl)-5,6,7,8-tetrahydro-3-quinolinecarbonitrile]",619
2,"C=CC(=O)N1CC2(CCN(c3nc4cc(-c5ccnn5C)ccc4c(-c4cc(O)cc(F)c4F)c3C)C2)C1 [Example 16-13, 1-(6-(4-(2,3-difluoro-5-hydroxyphenyl)-3-methyl-7-(1-methyl-1H-pyrazol-5-yl)-2-quinolinyl)-2,6-diazaspiro[3.4]octan-2-yl)-2-propen-1-one]",368

# Same assay, conditions: Avg 2 h Coupled exchange IC50, 2 h compound pre-incubation, SOS-mediated nucleotide exchange
row,SMILES,IC50 [nM]
1,"C=CC(=O)N1CC2(CCN(c3nc4c(c(-c5c(C)ccc6[nH]ncc56)c3C#N)[C@@H]3CC[C@H]4C3)C2)C1 (single isomer, unassigned) [Example 14-6]",1420
2,"C=CC(=O)N1CC2(CCN(c3nc4c(c(-c5c(C)cccc5O)c3C#N)C[C@H]3C[C@@H]4C3)C2)C1 [Example 13-38, (1S,9S)-6-(2-hydroxy-6-methylphenyl)-4-(2-(2-propenoyl)-2,6-diazaspiro[3.4]octan-6-yl)-3-azatricyclo[7.1.1.0^2,7]undeca-2,4,6-triene-5-carbonitrile]",1420
3,"C=CC(=O)N1CC2(CCN(c3nc4c(c(-c5c(C)ccc6cn[nH]c56)c3C)CCC(C)(C)C4)C2)C1 (single isomer, unassigned) [Example 2-25, (M)-1-(6-(3,7,7-trimethyl-4-(6-methyl-1H-indazol-7-yl)-5,6,7,8-tetrahydro-2-quinolinyl)-2,6-diazaspiro[3.4]octan-2-yl)-2-propen-1-one]",6880
4,"C=CC(=O)N1CC2(CCN(c3nc4c(c(-c5c(Cl)c(C)cc6[nH]ncc56)c3C#N)C[C@H]3C[C@@H]4C3(C)C)C2)C1 [Example 12-18, (1R,9R)-6-(5-chloro-6-methyl-1H-indazol-4-yl)-10,10-dimethyl-4-(2-(2-propenoyl)-2,6-diazaspiro[3.4]octan-6-yl)-3-azatricyclo[7.1.1.0^2,7] undeca-2,4,6-triene-5-carbonitrile]",988
5,"C=CC(=O)N1CC2(CCN(c3nc4c(c(-c5c(C)ccc6cnn(C)c56)c3C#N)CO[C@@H](C3CC3)C4)C2)C1 (single isomer, unassigned) [Example 13-119]",6700
6,"C=CC(=O)N1CC2(CCN(c3nc4c(c(-c5c(C)c(C)cc6cnn(C)c56)c3C#N)COC(C)(C)C4)C2)C1 (single isomer, unassigned) [Example 13-91, (M)-7,7-dimethyl-2-(2-(2-propenoyl)-2,6-diazaspiro[3.4]octan-6-yl)-4-(1,5,6-trimethyl-1H-indazol-7-yl)-7,8-dihydro-5H-pyrano[4,3-b]pyridine-3-carbonitrile]",9270
7,"C=CC(=O)N1CC2(CCN(c3nc4c(c(-c5c(C)ccc6[nH]ncc56)c3C#N)CC(C)(C)C4)[C@H]2C)C1 (atropisomer, axis not shown; (P)) [Example 13-53, (P)-6,6-dimethyl-4-(5-methyl-1H-indazol-4-yl)-2-((5S)-5-methyl-2-(2-propenoyl)-2,6-diazaspiro[3.4]octan-6-yl)-6,7-dihydro-5H-cyclopenta[b]pyridine-3-carbonitrile]",657
8,"C=CC(=O)N1CC2(CCN(c3nc4c(c(-c5c(C)ccc6cnn(C)c56)c3Cl)COC(C)(C)C4)C2)C1 (single isomer, unassigned) [Example 2-88, (P)-1-(6-(3-chloro-4-(1,6-dimethyl-1H-indazol-7-yl)-7,7-dimethyl-7,8-dihydro-5H-pyrano[4,3-b]pyridin-2-yl)-2,6-diazaspiro[3.4]octan-2-yl)-2-propen-1-one]",4730
